Patent US12523646B2, “Device and method for cell-based drug screening” (The Regents of the University of California, priority 2017, dated 2026)

Assay: Numerical simulations (Comsol Multiphysics) of small-molecule concentration dynamics with porous beads and conical microwells
Details: 225 μm diameter beads

diffusion coefficient in the bead, Db, corresponding to measured t1/2: 0.125 μm^2/s
SMILES: O=C1OC2(c3ccc(O)cc3Oc3cc(O)ccc32)c2ccccc21 [fluorescein]
